{"source": "ChEMBL document CHEMBL1799965", "about": "“Synthesis of useful fragments in drug discovery: 2-Amino-5-tert-butylpyridine and its oxidised analogues” (Bioorg Med Chem Lett, 2011)", "key": {"[1]": {"experiment": "Membrane affinity to immobilized artificial membrane by HPLC method", "type": "physicochemical"}, "[2]": {"experiment": "Solubility of the compound in simulated fasted intestinal fluid", "type": "physicochemical", "settings": "simulated gi fluid"}, "[3]": {"experiment": "Solubility of the compound in buffer at pH 6.8", "type": "physicochemical"}, "Albumin": {"biological_target": "Albumin (Homo sapiens, UniProt P02768)", "sequence (P02768 whole entry)": "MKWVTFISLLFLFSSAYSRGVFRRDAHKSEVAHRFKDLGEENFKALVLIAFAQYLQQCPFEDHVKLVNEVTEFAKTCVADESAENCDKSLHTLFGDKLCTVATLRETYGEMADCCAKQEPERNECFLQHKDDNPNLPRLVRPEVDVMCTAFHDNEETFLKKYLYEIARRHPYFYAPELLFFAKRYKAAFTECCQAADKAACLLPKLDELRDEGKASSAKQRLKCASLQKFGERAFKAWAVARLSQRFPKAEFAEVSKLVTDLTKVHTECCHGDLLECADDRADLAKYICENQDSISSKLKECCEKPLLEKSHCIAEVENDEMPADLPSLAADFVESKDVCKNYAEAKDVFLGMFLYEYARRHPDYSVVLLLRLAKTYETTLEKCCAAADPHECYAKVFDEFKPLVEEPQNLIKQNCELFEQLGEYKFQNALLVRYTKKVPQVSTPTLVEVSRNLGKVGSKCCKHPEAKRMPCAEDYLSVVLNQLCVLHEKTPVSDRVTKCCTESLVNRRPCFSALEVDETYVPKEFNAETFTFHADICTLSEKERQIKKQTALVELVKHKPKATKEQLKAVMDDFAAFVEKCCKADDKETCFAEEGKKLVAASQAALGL", "experiment": "Binding affinity to human serum albumin by HPLC method"}, "[4]": {"experiment": "Lipophilicity, Log D of the compound by HPLC method", "type": "physicochemical"}}}
{"smiles": "CC(C)(C)c1ccc(N)cc1", "values": [{"measurement": "CHI", "setting": "[1]", "result": 35.5}, {"measurement": "solubility", "setting": "[2]", "result": "< 5", "unit": "µM"}, {"measurement": "solubility", "setting": "[3]", "result": "< 5", "unit": "µM"}, {"measurement": "Activity", "setting": "Albumin", "result": 78.5, "unit": "%"}, {"measurement": "logD", "setting": "[4]", "result": 2.83}]}
{"smiles": "CC(C)(C)c1ccc(N)nc1", "values": [{"measurement": "CHI", "setting": "[1]", "result": 33}, {"measurement": "solubility", "setting": "[2]", "result": 72, "unit": "µM"}, {"measurement": "solubility", "setting": "[3]", "result": 59, "unit": "µM"}, {"measurement": "Activity", "setting": "Albumin", "result": 38.9, "unit": "%"}, {"measurement": "logD", "setting": "[4]", "result": 1.53}]}
